Consider 1 compound from paper PMC2990605 (British Journal of Cancer, 2010).

Entries after “also recorded” stand apart in the source; their conditions may differ.

Data set [1] can be described thus: Dose-limiting toxicity and maximum tolerated dose of the paclitaxel/tosedostat combination. The class given is in vivo, patients. As to the method:
The starting dose of CHR-2797 was 90 mg daily, below the MTD.
Toxicity was evaluated according to common toxicity criteria for adverse events (CTCAEv3.0). The MTD was defined as the dose level(s) at which at least two out of six patients developed DLT.

The next data set deals with transformed cells. On the set-up: method as in Krige et al, 2008. The following applies: in vitro and in vivo experiments; ref Krige et al, 2008; cited from earlier work.
In another data set the test system is cancer cell lines. On the set-up: method as in Jenkins et al, 2007; Moore et al, 2009. The following applies: wide range of cancer cell lines in vitro; ref Jenkins et al, 2007; Moore et al, 2009; cited from earlier work.

In the case of `CC(C)C[C@@H](C(=O)N[C@H](C(=O)OC1CCCC1)c1ccccc1)[C@H](O)C(=O)NO` [tosedostat], in data set [1] (all cohorts, 22 patients, tosedostat with paclitaxel), the “DLTs observed in the study” value is on record as “only one DLT observed in 22 patients”. The DLT entry in data set [1] (cohort 5: tosedostat 180 mg combined with paclitaxel 175 mg m^−2, one patient, first 21 days) is “One DLT (grade 3 dyspnoea); also recorded: CTC grade 3 dyspnoea, with grade 2 fever and persistent grade 3 urinary tract infection”. In data set [1] (cohort 6: 175 mg m^−2 paclitaxel, 240 mg tosedostat, three patients), the “grade 3/4 toxicity in dose-escalation phase” value is on record as “without any grade 3/4 toxicity”. In addition, in data set [1] (tosedostat 90–240 mg daily, paclitaxel 135–175 mg m^−2 every 3 weeks), the “MTD of tosedostat combined with paclitaxel” value is given as “No formal MTD was determined; also recorded: Formal MTD was never reached; also recorded: not reached”. For the same compound, the selectivity entry with transformed cells was “selectivity for transformed over nontransformed cells”. Also, in the data set on cancer cell lines, the “combination with chemotherapeutic agents, antiproliferative effects” value is on record as “synergises”.
